Source: patent US20120088791A1, “AMIDOBIPIPERIDINECARBOXYLATE M1 ALLOSTERIC AGONISTS, ANALOGS AND DERIVATIVES THEREOF, AND METHODS OF MAKING AND USING SAME” (VANDERBILT UNIVERSITY, priority 2009, published 2012)
Where two headings read alike, the source gives them in different places.

Biological target: T1, rM1 (Rattus norvegicus, UniProt P08482)
T1 construct: host or cells: CHO-K1
T1 sequence (P08482 1-460): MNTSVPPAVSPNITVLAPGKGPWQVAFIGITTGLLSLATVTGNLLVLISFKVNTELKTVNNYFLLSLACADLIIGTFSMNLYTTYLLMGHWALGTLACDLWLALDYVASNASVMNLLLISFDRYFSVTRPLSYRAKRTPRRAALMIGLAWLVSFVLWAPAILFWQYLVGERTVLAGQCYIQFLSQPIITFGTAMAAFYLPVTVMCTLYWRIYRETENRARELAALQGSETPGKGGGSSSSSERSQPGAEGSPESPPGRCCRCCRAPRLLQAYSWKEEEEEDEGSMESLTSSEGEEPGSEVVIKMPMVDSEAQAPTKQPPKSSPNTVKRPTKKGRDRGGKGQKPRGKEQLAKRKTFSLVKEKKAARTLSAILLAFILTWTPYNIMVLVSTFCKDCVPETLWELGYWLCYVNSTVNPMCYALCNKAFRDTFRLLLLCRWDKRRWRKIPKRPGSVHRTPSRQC
Assay: Calcium mobilization assay, CHO-K1 cells stably expressing rM1
Type: cell-based
Details: for Emax: RM1, read-out: Efficacy (% Max ACh); for EC50: read-out: Potency (EC50)
Description: Cell culture and transfections. Chinese hamster ovary (CHO-K1) cells stably expressing rat (r)M1 were purchased from the American Type Culture Collection and cultured according to their indicated protocol. CHO cells stably expressing human (h)M2, hM3, and hM5 were used and described previously (Levey et al., 1991); rM4 cDNA, provided by T. I. Bonner (National Institutes of Health, Bethesda, Md.), was used to stably transfect CHO-K1 cells purchased from the American Type Culture Collection using Lipofectamine2000. To make stable hM2 and rM4 cell lines for use in calcium mobilization assays, these cells also were stably transfected with a chimeric G-protein (Gqi5) using Lipofectamine 2000. M1, hM3, and hM5 cells were grown in Ham's F-12 medium containing 10% heat-inactivated fetal bovine serum (FBS), 20 mM HEPES, and 50 μg/ml G418 sulfate. hM2-Gqi5 cells were grown in the same medium also containing 500 μg/ml Hygromycin B. Stable rM4-Gqi5 cells were grown in DMEM containing 10% heat-inactivated FBS, 20 mM HEPES, 400 μg/ml G418 sulfate, and 500 μg/ml Hygromycin B. The rat M1 Y381A orthosteric mutant receptor cDNA was generated using the Quik-Change site-directed mutagenesis kit (Stratagene) and verified by sequencing. CHO-K1 cells were stably transfected with this cDNA using Lipofectamine2000 and screened for expression based on calcium mobilization in response to the allosteric M1 agonist N-desmethylclozapine.
Calcium mobilization assays. For measurement of agonist-evoked increases in intracellular calcium, CHO-K1 cells stably expressing muscarinic receptors were plated in 100 μl of growth medium at 5×10^4 (rM1, hM3, and hM5) or 6×10^4 cells per well (rM1 Y381A, hM2, and rM4) in Costar 96-well black-walled, tissue culture (TC)-treated, clear-bottom plates (Fisher). Cells were incubated overnight at 37° C. and 5% CO2. The next day, medium was removed from the cells, and they were incubated with 50 μl of 2 μM Fluo-4 AM diluted in assay buffer [HBSS (Invitrogen) supplemented with 20 mM HEPES and 2.5 mM probenecid, pH 7.4] for 1 h at 37° C. Dye was removed and replaced with 45 μl of assay buffer. Agonists were diluted into assay buffer at a 2× concentration and applied to cells using the automated system at 19 s into the 130 s protocol. Calcium flux was measured over time as an increase in fluorescence (fold over basal) using the Flexstation plate reader (Molecular Devices).

[1] = Table 1, R-enantiomers, agonist-evoked calcium flux

Row | Structure (SMILES) | Emax (Table 1, R-enantiomers) [%] | EC50 [1] [nM] | EC50 (Table 2, S-enantiomers) [nM]
1 | CCOC(=O)N1CCC(N2CCC[C@@H](NC(=O)c3ccc(OC)cc3)C2)CC1 [(R)-ethyl 3-(4-methoxybenzamido)-1,4′-bipiperidine-1′-carboxylate] | 63 | 963 | 
2 | CCOC(=O)N1CCC(N2CCC[C@@H](NC(=O)c3ccc(F)c(F)c3)C2)CC1 [(R)-ethyl 3-(3,4-difluorobenzamido)-1,4′-bipiperidine-1′-carboxylate] | 84 | 309 | 
3 | CCOC(=O)N1CCC(N2CCC[C@H](NC(=O)c3ccc(OC)cc3)C2)CC1 [(S)-ethyl 3-(4-methoxybenzamido)-1,4′-bipiperidine-1′-carboxylate] |  |  | > 10000
4 | CCOC(=O)N1CCC(N2CCC[C@@H](NC(=O)c3ccc(F)cc3C)C2)CC1 [(R)-ethyl 3-(4-fluoro-2-methylbenzamido)-1,4′-bipiperidine-1′-carboxylate] | 77 | 59 | 
5 | CCOC(=O)N1CCC(N2CCC[C@H](NC(=O)c3ccccc3Cl)C2)CC1 [(S)-ethyl 3-(2-chlorobenzamido)-1,4′-bipiperidine-1′-carboxylate] |  |  | > 10000
6 | CCOC(=O)N1CCC(N2CCC[C@H](NC(=O)C3CCCCC3)C2)CC1 [(S)-ethyl 3-(cyclohexanecarboxamido)-1,4′-bipiperidine-1′-carboxylate] |  |  | > 10000
7 | CCOC(=O)N1CCC(N2CCC[C@H](NC(=O)c3ccc(C)cc3)C2)CC1 [(S)-ethyl 3-(4-methylbenzamido)-1,4′-bipiperidine-1′-carboxylate] |  |  | > 10000
8 | CCOC(=O)N1CCC(N2CCC[C@H](NC(=O)c3cccc(F)c3)C2)CC1 [(S)-ethyl 3-(3-fluorobenzamido)-1,4′-bipiperidine-1′-carboxylate] |  |  | > 10000
9 | CCOC(=O)N1CCC(N2CCC[C@H](NC(=O)C3CCCC3)C2)CC1 [(S)-ethyl 3-(cyclopentanecarboxamido)-1,4′-bipiperidine-1′-carboxylate] |  |  | > 10000
10 | CCOC(=O)N1CCC(N2CCC[C@@H](NC(=O)C3CCCCC3)C2)CC1 [(R)-ethyl 3-(cyclohexanecarboxamido)-1,4′-bipiperidine-1′-carboxylate] | 44 | 685 | 
11 | CCOC(=O)N1CCC(N2CCC[C@H](NC(=O)c3ccccc3C)C2)CC1 [(S)-ethyl 3-(2-methylbenzamido)-1,4′-bipiperidine-1′-carboxylate] |  |  | > 10000
12 | CCOC(=O)N1CCC(N2CCC[C@@H](NC(=O)C3CCCC3)C2)CC1 [(R)-ethyl 3-(cyclopentanecarboxamido)-1,4′-bipiperidine-1′-carboxylate] | 35 | 5300 | 
13 | CCOC(=O)N1CCC(N2CCC[C@@H](NC(=O)c3cccc(F)c3)C2)CC1 [(R)-ethyl 3-(3-fluorobenzamido)-1,4′-bipiperidine-1′-carboxylate] | 92 | 144 | 
14 | CCOC(=O)N1CCC(N2CCC[C@H](NC(=O)c3cccs3)C2)CC1 [(S)-ethyl 3-(thiophene-2-carboxamido)-1,4′-bipiperidine-1′-carboxylate] |  |  | > 10000
15 | CCOC(=O)N1CCC(N2CCC[C@H](NC(=O)c3cccc(OC)c3)C2)CC1 [(S)-ethyl 3-(3-methoxybenzamido)-1,4′-bipiperidine-1′-carboxylate] |  |  | > 10000
16 | CCOC(=O)N1CCC(N2CCC[C@@H](NC(=O)c3cccs3)C2)CC1 [(R)-ethyl 3-(thiophene-2-carboxamido)-1,4′-bipiperidine-1′-carboxylate] | 61 | 1300 | 
17 | CCOC(=O)N1CCC(N2CCC[C@@H](NC(=O)c3ccc(C)cc3)C2)CC1 [(R)-ethyl 3-(4-methylbenzamido)-1,4′-bipiperidine-1′-carboxylate] | 14 | 819 | 
18 | CCOC(=O)N1CCC(N2CCC[C@@H](NC(=O)c3ccccc3Cl)C2)CC1 [(R)-ethyl 3-(2-chlorobenzamido)-1,4′-bipiperidine-1′-carboxylate] | 57 | 2600 | 
19 | CCOC(=O)N1CCC(N2CCC[C@H](NC(=O)c3ccccc3)C2)CC1 [(S)-ethyl 3-benzamido-1,4′-bipiperidine-1′-carboxylate] |  |  | > 10000
20 | CCOC(=O)N1CCC(N2CCC[C@H](NC(=O)c3ccc(F)c(F)c3)C2)CC1 [(S)-ethyl 3-(3,4-difluorobenzarnido)-1,4′-bipiperidine-1′-carboxylate] |  |  | > 10000
21 | CCOC(=O)N1CCC(N2CCC[C@@H](NC(=O)c3cccc(OC)c3)C2)CC1 [(R)-ethyl 3-(3-methoxybenzamido)-1,4′-bipiperidine-1′-carboxylate] | 91 | 245 | 
22 | CCOC(=O)N1CCC(N2CCC[C@H](NC(=O)c3ccc(F)cc3C)C2)CC1 [(S)-ethyl 3-(4-fluoro-2-methylbenzamido)-1,4′-bipiperidine-1′-carboxylate] |  |  | > 10000
